From patent US20120231482A1, “METHOD, KIT OR DIAGNOSTIC FOR THE DETECTION OF REAGENTS WHICH INDUCE ALTERED CONTRACTILITY” (THE JOHNS HOPKINS UNIVERSITY, priority 2009, published 2012)

Molecular target: T1, tropomyosin (Rattus norvegicus, UniProt P04692)
T1 construct: Rat myofibrillar preparations, as described in [7], were obtained from frozen ventricles (Pel Freez Biologicals); tissue Pel Freez Biologicals; host or cells: myofibrils from frozen rat ventricles
Test: Gel shift assay, reducing/non-reducing western blot of cardiac myofibrils
Type: biochemical
Conditions: non-reducing; lost with 5 mM DTT
Protocol: FIG. 4. Validation and characterizations of HNO modifications. 1 μg of rat cardiac myofibrils treated with HNO donors or control compounds were separated under reducing or nonreducing conditions and western blots probed for candidate proteins tropomyosin, actin, myosin heavy chain, myosin light chain 1 (n=4). […] Silver stained gel analysis indicated a protein band with […] gel mobility that was lost with DTT.
FIG. 5. Evaluation of the interaction between actin and tropomyosin with NCA treatment. Purified rabbit skeletal tropomyosin (0.03 μg) and isolated rat cardiac myofibrils (1 μg) were treated with NCA or AS and evaluated by 1D non-reducing western blot probing for tropomyosin (A) and actin (B) (n=3). […] (C) Fluorescent DIGE analysis of samples from A and B independent labeled indicates NCA specific band (green) above purified TM (blue) and below AS treated myofibrils (red) (n=3). (D) MS analysis of the same gel region identified both tropomyosin and actin in non-reduced lane but not with DTT treatment (n=2).
Gel shift assay. 10 μg of rat myofibrils/treatment were diluted to 0.5 μg/μl in HEN including 0.1% (w/v) SDS and exposed to a treatment for 20 min at 37° C. Samples were diluted to 0.1 ug/ul in 1×LSD sample buffer, treated with 0, 5 or 100 mM DTT and separated by SDS PAGE. Proteins were silver stained or transferred to nitrocellulose and immunoblotted with primary antibodies for tropomyosin sarcomeric (CH1, Sigma-Aldrich Co., St. Louis, Mo., USA), actin (AC-40, Sigma-Aldrich Co., St. Louis, Mo., USA), myosin light chain 1 (MLM527, Abcam, Cambridge, Mass., USA) or myosin heavy chain (3-48, Abcam, Cambridge, Mass., USA). For some silver stained gel bands of interest in-gel digestion was done following the protocol outlined in Shevchenko et al.. Gel slices of interest were excised from the gels cut into 1 mm^3 pieces. Silver stained gel pieces were destained in 1:1(v/v) 30 mM Potassium ferricyanide and 100 mM Sodium thiosulfate and wash three times with ddH2O. Gel pieces were dehydrated in 100% acetonitrile and reswelled in 10 mM DTT and incubated at 55° C. for 1 hour. After the DTT solution was removed, a solution of 55 mM iodoacetimide was added and gel slices were incubated at room temperature protected from light. Gel slices were then washed 3 times with 50% (v/v) ACN, 25 mM (NH4)HCO3 and then fully dehydrated in 100% ACN and dried in a speed vac. Gel pieces were reswelled in a 12.5 ng/μL trypsin (Promega, Madison Wis. USA) solution containing 25 mM (NH4)HCO3 and incubated at 37° C. for >16 hours. Digested peptides were extracted by addition of 5% (v/v) formic acid and incubation for 15 min followed by addition of an equal volume of 100% ACN and 15 min incubation, this step was repeated and the extracts were combined. […]

T1 sequence (P04692 whole entry): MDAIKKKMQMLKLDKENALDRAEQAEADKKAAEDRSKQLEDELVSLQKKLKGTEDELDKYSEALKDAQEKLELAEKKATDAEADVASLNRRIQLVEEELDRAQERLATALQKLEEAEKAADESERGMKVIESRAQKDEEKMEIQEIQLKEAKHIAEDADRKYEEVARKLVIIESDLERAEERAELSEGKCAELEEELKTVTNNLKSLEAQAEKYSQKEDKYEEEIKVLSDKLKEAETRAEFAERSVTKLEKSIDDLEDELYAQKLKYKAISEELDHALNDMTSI

In the case of `CC(=O)OC1(N=O)CCCCC1` [NCA, 1-nitrosocyclohexylacetate], the “tropomyosin molecular weight shift” value is reported as “higher molecular weight species that was specific for NCA treatment”.
